The values that follow come from ChEMBL document CHEMBL5726915, “Substituted pyrimidines containing acidic groups as TLR7 modulators” (2019).

pEC50: −log10 of the molar value.

The assay addresses T1, Toll-like receptor 7 (Homo sapiens, UniProt Q9NYK1).
T1 sequence (Q9NYK1 whole entry): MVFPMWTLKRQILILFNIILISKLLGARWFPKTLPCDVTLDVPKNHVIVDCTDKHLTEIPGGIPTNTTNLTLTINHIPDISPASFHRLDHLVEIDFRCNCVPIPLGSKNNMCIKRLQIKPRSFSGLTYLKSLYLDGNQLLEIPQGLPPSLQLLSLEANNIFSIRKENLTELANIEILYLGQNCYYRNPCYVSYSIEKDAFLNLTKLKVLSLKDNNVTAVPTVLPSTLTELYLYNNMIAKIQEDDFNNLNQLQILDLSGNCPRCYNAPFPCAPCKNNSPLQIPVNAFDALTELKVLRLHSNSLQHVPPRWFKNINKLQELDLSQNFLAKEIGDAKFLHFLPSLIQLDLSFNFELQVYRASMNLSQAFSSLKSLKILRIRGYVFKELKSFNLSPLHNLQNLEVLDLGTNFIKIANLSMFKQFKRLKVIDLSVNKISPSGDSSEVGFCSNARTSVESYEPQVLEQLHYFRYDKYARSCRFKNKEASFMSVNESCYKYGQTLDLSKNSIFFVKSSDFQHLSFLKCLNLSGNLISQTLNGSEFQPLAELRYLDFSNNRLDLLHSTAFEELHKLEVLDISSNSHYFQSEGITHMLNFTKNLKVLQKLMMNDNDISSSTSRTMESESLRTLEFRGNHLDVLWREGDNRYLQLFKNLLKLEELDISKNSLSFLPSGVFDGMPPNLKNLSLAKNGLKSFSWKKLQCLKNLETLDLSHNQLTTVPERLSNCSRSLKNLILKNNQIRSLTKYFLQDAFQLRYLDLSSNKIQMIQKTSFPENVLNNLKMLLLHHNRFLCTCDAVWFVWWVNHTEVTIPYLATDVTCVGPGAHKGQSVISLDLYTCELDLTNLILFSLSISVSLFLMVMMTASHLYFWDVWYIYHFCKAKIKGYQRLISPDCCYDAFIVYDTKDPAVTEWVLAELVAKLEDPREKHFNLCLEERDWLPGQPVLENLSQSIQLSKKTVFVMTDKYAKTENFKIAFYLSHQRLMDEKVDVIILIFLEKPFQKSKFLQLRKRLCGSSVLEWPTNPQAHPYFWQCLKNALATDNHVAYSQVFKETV
As to the kind of experiment: HEK TLR7 Assay: HEK-Blue TLR7 cells were purchased from Invivogen (San Diego, Calif.). The following description was taken from the product information sheet."HEK-Blue hTLR7 cells are designed for studying the stimulation of human TLR7 (hTLR7) by monitoring the activation of NF-kB. HEK-Blue hTLR7 cells were obtained by co-transfection of the hTLR7 gene and an optimized secreted embryonic alkaline phosphatase (SEAP) reporter gene into HEK293 cells. The SEAP reporter gene is placed under the control of the IFN-b minimal promoter fused to five NF-kB and AP-1-binding sites. Stimulation with a TLR7 ligand activates NF-kB and AP-1 which induce the production of SEAP, which is detected by the HEK-Blue™ Detection cell culture medium."A typical assay protocol involved the following steps:1. Cells were cultured according to the product information sheet.2. 10 mM compound stock in DMSO were first diluted to 3 mM and then 3-fold serially diluted using DMSO to afford a 10-pt dilution.3. 3 μl of the diluted DMSO were added to 57 μl HEK-Blue Detection media for a further 20-fold dilution.4. 10 μl of the diluted compound in assay media were added into 40 μl cell culture (in HEK-Blue™ Detection media) in 384-well plate. Final cell concentration=8,000 cells per well.5. The plates were incubated at 37° C. in 5% CO2 for 16 h. SEAP was determined using a spectrophotometer at 620-655 nm. (In general: In a reporter assay the amount or activity of a reporter protein is the signal.)
One may read the pEC50 as −log10 of the EC50, conventionally taken in molar units. For the molecule `CCCC[C@@H](CCSC)Nc1nc(N)nc(C)c1Cc1cc(Cc2nn[nH]n2)ccc1OC`, the pEC50 was > 7.00.

With `CCCC[C@@H](CCSC)Nc1nc(N)nc(C)c1Cc1cc(C(=O)NCCCP(=O)(O)O)ccc1OC`, the pEC50 was > 7.00.

Turning to `CCCC[C@@H](CCS(C)(=O)=O)Nc1nc(N)nc(C)c1Cc1cc(Cc2nn[nH]n2)ccc1OC`, the pEC50 was > 7.00.
